Assay results: paper PMC10743905, “Design, Synthesis, and In Vitro and In Vivo Bioactivity Studies of Hydrazide–Hydrazones of 2,4-Dihydroxybenzoic Acid” (International Journal of Molecular Sciences, 2023)
In brackets after ≈: the same amount, converted by molar mass. Like-named read-outs stand apart in the source and are kept apart here.

Assays:
Format in all cases: cell-based
[1] = tested on: Micrococcus luteus ATCC 10240; assay: Broth microdilution MIC/MBC
Text: (§1) In vitro antimicrobial activity assays - Methodology
(§2) The examined compounds 1 - 24 were screened in vitro for antibacterial and antifungal activities using the broth microdilution method according to procedure reported earlier by our research group and European Committee on Antimicrobial Susceptibility Testing (EUCAST) and Clinical and Laboratory Standards Institute (CLSI) guidelines against a panel of reference and clinical or saprophytic strains of microorganisms, in-cluding Gram-positive bacteria, Staphylococcus aureus ATCC 43300 (Methicillin Resistant S. aureus – MRSA), Staphylococcus aureus ATCC 29213 (Methicillin Susceptible S. aureus – MSSA), Staphylococcus epidermidis ATCC 12228, Enterococcus faecalis ATCC 29212, Micro-coccus luteus ATCC 10240, Bacillus subtilis ATCC 6633 and Bacillus cereus ATCC 10876), Gram-negative bacteria (Bordetella bronchiseptica ATCC 4617, Escherichia coli ATCC 25922, Klebsiella pneumoniae ATCC 13883, Proteus mirabilis ATCC 12453, Salmonella typhimurium ATCC 14028 and Pseudomonas aeruginosa ATCC 9027) and fungi belonging to yeasts (Can-dida albicans ATCC 10231, Candida albicans ATCC 2091, Candida parapsilosis ATCC 22019, Candida glabrata ATCC 90030 and Candida krusei ATCC 14243). The microorganisms be-longing to ATCC came from American Type Culture Collection, routinely used for the evaluation of antimicrobials. […]
(§3) Samples containing examined compounds were dissolved in dimethyl sulfoxide (DMSO). […]
(§4) Subsequently, the MIC (Minimal Inhibitory Concentration) of the compounds was ex-amined by the microdilution broth method, using their two-fold dilutions in Mueller- […]
(§5) Hinton broth or (for bacteria) and RPMI 1640 broth with MOPS (for fungi) prepared in 96-well polystyrene plates. Final concentrations of the compounds ranged from 1000 to 0.488 µg/ml. Microbial suspensions were prepared in 0.85% NaCl with an optical density of 0.5 McFarland standard. Next each bacterial or fungal suspension was added per each well containing broth and various concentrations of the examined compounds. After incuba-

[2] = tested on: Staphylococcus epidermidis ATCC 12228; assay: Broth microdilution MIC/MBC; conditions: ATCC12228, read-out: MIC
Text: as §1, §2, §3, §4, §5

[3] = tested on: Bacillus subtilis ATCC 6633; assay: Broth microdilution MIC/MBC
Text: Detailed procedures are presented in the Supplementary Materials. […]
as §1
as §2, with “antimicrobials. All the used microbial cultures were first subcultured on nu-trient agar or Sabouraud agar at 35°C for 18-24 h or 30°C for 24-48 h for bacteria and fungi,” for “antimicrobials.”
(§6) The surface of Mueller-Hinton agar (for bacteria) and RPMI 1640 with MOPS (for fungi) were inoculated with the suspensions of bacterial or fungal species. Microbial suspensions were prepared in sterile saline with an optical density of McFarland standard scale 0.5.
(§7) Samples containing examined compounds were dissolved in dimethyl sulfoxide (DMSO).
(§8) Furthermore, bacterial and fungal suspensions were put onto Petri dishes with solid me-dia containing 2 mg/mL of the tested compounds followed incubation at 37°C for 24h and 30°C for 48h for bacteria and fungi, respectively. The inhibition of microbial growth was judged by comparison with a control culture prepared without any sample tested. Ciprof-loxacin, vancomycin, nitrofurantoin, cefuroxime, ampicillin or nystatin (Sigma) were used as a reference antibacterial or antifungal compounds, respectively.
as §4, §5

[4] = tested on: Bacillus cereus ATCC 10876; assay: Broth microdilution MIC/MBC
Text: as §1
as §2, with “antimicrobials. All the used microbial cultures were first subcultured on nu-trient agar or Sabouraud agar at 35°C for 18-24 h or 30°C for 24-48 h for bacteria and fungi,” for “antimicrobials.”
as §6, §7, §8, §4, §5

[5] = tested on: Candida albicans ATCC 10231; assay: Broth microdilution MIC/MFC
Text: as §1
as §2, with “antimicrobials. All the used microbial cultures were first subcultured on nu-trient agar or Sabouraud agar at 35°C for 18-24 h or 30°C for 24-48 h for bacteria and fungi,” for “antimicrobials.”
as §6, §7, §8, §4, §5

[6] = tested on: Candida albicans ATCC 2091; assay: Broth microdilution MIC/MFC
Text: as §1
as §2, with “antimicrobials. All the used microbial cultures were first subcultured on nu-trient agar or Sabouraud agar at 35°C for 18-24 h or 30°C for 24-48 h for bacteria and fungi,” for “antimicrobials.”
as §6, §7, §8, §4, §5

[7] = tested on: Candida glabrata ATCC 90030; assay: Broth microdilution MIC/MFC
Text: as §1
as §2, with “antimicrobials. All the used microbial cultures were first subcultured on nu-trient agar or Sabouraud agar at 35°C for 18-24 h or 30°C for 24-48 h for bacteria and fungi,” for “antimicrobials.”
as §6, §7, §8, §4, §5

[8] = tested on: Candida krusei ATCC 14243; assay: Broth microdilution MIC/MFC
Text: as §1
as §2, with “antimicrobials. All the used microbial cultures were first subcultured on nu-trient agar or Sabouraud agar at 35°C for 18-24 h or 30°C for 24-48 h for bacteria and fungi,” for “antimicrobials.”
as §6, §7, §8, §4, §5

[9] = tested on: Candida parapsilosis ATCC 22019; assay: Broth microdilution MIC/MFC
Text: as §1
as §2, with “antimicrobials. All the used microbial cultures were first subcultured on nu-trient agar or Sabouraud agar at 35°C for 18-24 h or 30°C for 24-48 h for bacteria and fungi,” for “antimicrobials.”
as §6, §7, §8, §4, §5

[10] = tested on: Enterococcus faecalis ATCC 29212; assay: Broth microdilution MIC/MBC
Text: as §1
as §2, with “antimicrobials. All the used microbial cultures were first subcultured on nu-trient agar or Sabouraud agar at 35°C for 18-24 h or 30°C for 24-48 h for bacteria and fungi,” for “antimicrobials.”
as §6, §7, §8, §4, §5

Structure (SMILES): CO/N=C(\C(=O)N[C@@H]1C(=O)N2C(C(=O)O)=C(COC(N)=O)CS[C@H]12)c1ccco1 [CFX, cefuroxime, reference compound]
- MIC [1]: 0.98 µg/mL (≈ 2.31 µM)
- MIC ([1]; ATCC10240, read-out: MIC): 0.98 µg/mL (≈ 2.31 µM)
- MIC [2]: 0.24 µg/mL (≈ 0.566 µM)
- MIC [3]: 15.62 µg/mL (≈ 36.8 µM)
- MIC ([3]; ATCC6633, read-out: MIC): 15.6 µg/mL (≈ 36.8 µM)
- MIC [4]: 31.25 µg/mL (≈ 73.6 µM)
- MIC ([4]; ATCC10876, read-out: MIC): 31.2 µg/mL (≈ 73.6 µM)

Structure (SMILES): C[C@@H]1[C@H](O)[C@@H](C)/C=C/C=C/CC/C=C/C=C/C=C/C=C/C(O[C@H]2O[C@H](C)[C@@H](O)[C@H](N)[C@@H]2O)CC2O[C@](O)(CC(O)C(O)CCC(O)CC(O)CC(O)CC(=O)O[C@H]1C)CC(O)C2C(=O)O (stereo partly drawn) [NY, nystatin, reference compound]
- MFC [5]: 0.48 µg/mL (≈ 0.518 µM)
- MFC/MIC [5]: 1
- MIC [5]: 0.48 µg/mL (≈ 0.518 µM)
- MFC [6]: 0.24 µg/mL (≈ 0.259 µM)
- MFC/MIC [6]: 1
- MIC [6]: 0.24 µg/mL (≈ 0.259 µM)
- MFC [7]: 0.48 µg/mL (≈ 0.518 µM)
- MFC/MIC [7]: 2
- MIC [7]: 0.24 µg/mL (≈ 0.259 µM)
- MFC [8]: 0.24 µg/mL (≈ 0.259 µM)
- MFC/MIC [8]: 1
- MIC [8]: 0.24 µg/mL (≈ 0.259 µM)
- MFC [9]: 0.48 µg/mL (≈ 0.518 µM)
- MFC/MIC [9]: 2
- MIC [9]: 0.24 µg/mL (≈ 0.259 µM)

Structure (SMILES): CN[C@H](CC(C)C)C(=O)N[C@H]1C(=O)N[C@@H](CC(N)=O)C(=O)N[C@H]2C(=O)N[C@H]3C(=O)N[C@H](C(=O)N[C@H](C(=O)O)c4cc(O)cc(O)c4-c4cc3ccc4O)[C@H](O)c3ccc(c(Cl)c3)Oc3cc2cc(c3O[C@@H]2O[C@H](CO)[C@@H](O)[C@H](O)[C@H]2O[C@H]2C[C@](C)(N)[C@H](O)[C@H](C)O2)Oc2ccc(cc2Cl)[C@H]1O [VA, vancomycin, reference compound]
- MBC [10]: 1.95 µg/mL (≈ 1.35 µM)
- MBC/MIC [10]: 2
- MIC [10]: 0.98 µg/mL (≈ 0.676 µM)

Structure (SMILES): CC1(C)S[C@@H]2[C@H](NC(=O)[C@H](N)c3ccccc3)C(=O)N2[C@H]1C(=O)O [APC, ampicillin, reference compound]
- MIC [3]: 62.5 µg/mL (≈ 179 µM)
- MIC ([3]; ATCC6633, read-out: MIC): 62.5 µg/mL (≈ 179 µM)
